Test results: patent US20180160684A1 (priority 2015, published 2018)
Where two headings read alike, the source gives them in different places.

Tested on: tomato late blight
Assay type: in vivo, Phytophthora infestans

**Q.** Which Control value (difenoconazole 12.5 ppm alone (valifenalate 0 ppm)) does the source give for `CC1COC(Cn2cncn2)(c2ccc(Oc3ccc(Cl)cc3)cc2Cl)O1` (stereo not drawn) [Difenoconazole, difenoconazole] here?
**A.** 13

**Q.** And the Control value (difenoconazole 25 ppm alone (valifenalate 0 ppm))?
**A.** 13

**Q.** What about the Control value (difenoconazole 50 ppm alone (valifenalate 0 ppm)) of the same molecule?
**A.** 21

**Q.** What about the Control value (difenoconazole 100 ppm alone (valifenalate 0 ppm)) of the same molecule?
**A.** 25

**Q.** What does the source list for `Cc1cc(OC(C)C)ccc1C(=O)C(C)(C)NC(=O)c1sccc1C` [Isofetamid, isofetamid]?
**A.** Control value (isofetamid 18.8 ppm alone (valifenalate 0 ppm)): 0; Control value (isofetamid 37.5 ppm alone (valifenalate 0 ppm)): 0; Control value (isofetamid 75 ppm alone (valifenalate 0 ppm)): 0; Control value (isofetamid 150 ppm alone (valifenalate 0 ppm)): 4; Control value (isofetamid 300 ppm alone (valifenalate 0 ppm)): 8

**Q.** With `COc1cc(C)c(C(=O)c2c(OC)ncc(Cl)c2C)c(OC)c1OC` [Pyriofenone, pyriofenone] as the molecule, how does the Control value (pyriofenone 12.5 ppm alone (valifenalate 0 ppm)) read?
**A.** 0

**Q.** What about the Control value (pyriofenone 25 ppm alone (valifenalate 0 ppm)) of the same molecule?
**A.** 0

**Q.** What about the Control value (pyriofenone 50 ppm alone (valifenalate 0 ppm)) of the same molecule?
**A.** 0

**Q.** What about the Control value (pyriofenone 100 ppm alone (valifenalate 0 ppm)) of the same molecule?
**A.** 0

**Q.** Which results are given for `CC(C)(C)C(O)(CCc1ccc(Cl)cc1)Cn1cncn1` (stereo not drawn) [Tebuconazole, tebuconazole]?
**A.** Control value (tebuconazole 12.5 ppm alone (valifenalate 0 ppm)): 4; Control value (tebuconazole 25 ppm alone (valifenalate 0 ppm)): 4; Control value (tebuconazole 50 ppm alone (valifenalate 0 ppm)): 4; Control value (tebuconazole 100 ppm alone (valifenalate 0 ppm)): 8

**Q.** With `COC(=O)CC(NC(=O)[C@@H](NC(=O)OC(C)C)C(C)C)c1ccc(Cl)cc1` (stereo partly drawn) [Valifenalate, valifenalate] as the molecule, how does the Control value (valifenalate 1.2 ppm alone (difenoconazole 0 ppm), Table 4) read?
**A.** 46

**Q.** What about the Control value (valifenalate 1.2 ppm alone (isofetamid 0 ppm), Table 1) of the same molecule?
**A.** 29

**Q.** And the Control value (valifenalate 1.2 ppm alone (pyriofenone 0 ppm), Table 2)?
**A.** 13

**Q.** What about the Control value (valifenalate 2.3 ppm alone (difenoconazole 0 ppm), Table 4) of the same molecule?
**A.** 54

**Q.** What about the Control value (valifenalate 2.3 ppm alone (isofetamid 0 ppm), Table 1) of the same molecule?
**A.** 42

**Q.** And the Control value (valifenalate 2.3 ppm alone (pyriofenone 0 ppm), Table 2)?
**A.** 25

**Q.** What about the Control value (valifenalate 2.3 ppm alone (tebuconazole 0 ppm), Table 3) of the same molecule?
**A.** 33

**Q.** What about the Control value (valifenalate 4.7 ppm alone (difenoconazole 0 ppm), Table 4) of the same molecule?
**A.** 58

**Q.** What about the Control value (valifenalate 4.7 ppm alone (isofetamid 0 ppm), Table 1) of the same molecule?
**A.** 54

**Q.** And the Control value (valifenalate 4.7 ppm alone (pyriofenone 0 ppm), Table 2)?
**A.** 50

**Q.** And the Control value (valifenalate 4.7 ppm alone (tebuconazole 0 ppm), Table 3)?
**A.** 46

**Q.** And the Control value (valifenalate 9.4 ppm alone (difenoconazole 0 ppm), Table 4)?
**A.** 75

**Q.** And the Control value (valifenalate 9.4 ppm alone (isofetamid 0 ppm), Table 1)?
**A.** 71

**Q.** And the Control value (valifenalate 9.4 ppm alone (pyriofenone 0 ppm), Table 2)?
**A.** 63

**Q.** What about the Control value (valifenalate 9.4 ppm alone (tebuconazole 0 ppm), Table 3) of the same molecule?
**A.** 63

**Q.** And the Control value (valifenalate 18.8 ppm alone (isofetamid 0 ppm), Table 1)?
**A.** 75

**Q.** What about the Control value (valifenalate 18.8 ppm alone (pyriofenone 0 ppm), Table 2) of the same molecule?
**A.** 79

**Q.** What about the Control value (valifenalate 18.8 ppm alone (tebuconazole 0 ppm), Table 3) of the same molecule?
**A.** 67

**Q.** What about the Control value (valifenalate 37.5 ppm alone (tebuconazole 0 ppm), Table 3) of the same molecule?
**A.** 72
